Test system: 454973-116-R2-J3-PDC spheroids, percent test/control viability
Test: Anticancer human tumor 454973-116-R2-J3-PDC patient-derived pancreatic carcinoma cell line growth inhibition [CLK]
Conditions: spheroids with HUVEC and MSC; for IC50: curve of first compound; for viability, T/C: stronger effect = lower value; active means viability on the fitted dose curve at most 10% of control; inactive means the rest
Source text: A high-throughput screen of multi-cell type tumor spheroids was designed to identify active combinations of […] and targeted small molecules. Complex spheroids include a stromal component modeled by human endothelial cells (HUVEC) and fibroblasts modeled by human mesenchymal stem cells (MSCs). The concentration ranges selected for each drug and investigational agent were based upon clinically achievable concentrations if the clinical Cmax of the agent was known.
Compounds. The drugs and investigational agents: cirtuvivint (SM08502; NSC835563), CC-671 (NSC850746), vemurafenib (NSC761431), tapotoclax (NSC804041), sotorasib (NSC818433), adagrasib (NSC831453), MRTX-1133 (NSC836407), BAY2416964 (NSC825713), copanlisib (NSC816437), inavolisib (NSC800729), abemaciclib (NSC768073), osimertinib (NSC779217), entinostat (NSC756642), eltanexor (KPT-8602, NSC794443), venetoclax (NSC766270), ceralasertib (NSC777638), bortezomib (NSC756655), olaparib (NSC753686), talazoparib (NSC767125), alisertib (NSC759677), peposertib (NSC802822), gemcitabine (NSC613327), 5-fluorouracil (NSC19893), SN-38 (NSC673596), oxaliplatin (NSC266046), paclitaxel (NSC125973), and doxorubicin (NSC123127), were obtained from the National Cancer Institute (NCI) Developmental Therapeutics Program Chemical Repository. The FDA-approved anticancer drug set is available from the Developmental Therapeutics Program at https://dtp.cancer.gov/organization/dscb/obtaining/available plates.htm. […] The stock solutions were prepared in dimethyl sulfoxide (DMSO, Sigma-Aldrich, St. Louis, MO, cat. D2650), except for the platinum complexes which were prepared in saline (Quality Biological, Gaithersburg, MD, cat. 114-055-101), at 800-fold the tested concentration and stored at -70 degrees C prior to their use. All drugs and investigational agents were tested over a range starting from a high concentration at or near the clinical Cmax and decreasing in half-log increments. If the clinical Cmax for an agent had not been determined, the highest concentration tested was 10 microM.
Cell Culture. All cells were maintained in an incubator at 37 degrees C and 5% CO2 with 95% humidity. The PDC lines were cultured according to standard operating procedures established by the NCI PDMR. Briefly, all PDCs were thawed and cultured in Matrigel-coated flasks prepared with a working solution of 1X Ham's F-12 nutrient mix, without supplementation (Invitrogen, Waltham, MA, cat. 11765054), 100 U/mL penicillin-streptomycin (Invitrogen, cat. 15140122), and 2.5% Matrigel (Corning Inc., Corning, NY, cat. 354248) for the first three passages. The 947758-054-R-J2-PDC line was cultured in 6B/Colon 1A media, which includes advanced DMEM/F-12 (Thermo Fisher Scientific, cat. 12634028), 10 mM HEPES (Thermo Fisher Scientific, cat. 15630080), 1X GlutaMAX supplement (Thermo Fisher Scientific, cat. 35050061), 0.1 mg/mL primocin (InvivoGen, cat. ant-pm-2), 10% defined fetal bovine serum, heat inactivated (HyClone Laboratories Inc., cat. SH30070.03HI), 1.25 mM N-Acetyl-L-cysteine (Sigma-Aldrich, cat. A9165), 10 mM nicotinamide (Sigma-Aldrich, cat. N0636), 1X B-27 supplement (Thermo Fisher Scientific, cat. 17504044), 1X N-2 supplement (Thermo Fisher Scientific, cat. 17502048), and 10 microM Y-27632 dihydrochloride (Tocris Bioscience, cat. 1254). The 876862-298-R-J1-PDC was cultured in 6E media, which includes all 6B/Colon 1A media components plus 50% L-WRN conditioned media (ATCC, cat. CRL-3276), 50 ng/mL recombinant human EGF recombinant protein (hEGF; Thermo Fisher Scientific, cat. PHG0311), 10 ng/mL recombinant human fibroblast growth factor 10 (hGFG-10; PeproTech, cat. 100-26), 1 ng/mL recombinant human fibroblast growth factor 2 (hFGF-2; PeproTech, cat. 100-18B), and 1 µM prostaglandin E2 (PGE2; Tocris, cat. 2296). The 227483-062-R1-J1-PDC line was cultured in Panc media, containing all 6E components except hFGF-2, with the addition of 500 nM SB-431542 (Selleckchem, cat. S1067) and 10 nM gastrin (Tocris, cat. 3006). […]

[1] = second compound 0.0316 µM, first compound 0.0316 µM
[2] = second compound 0.0316 µM, first compound 0.1 µM
[3] = second compound 0.0316 µM, first compound 0.316 µM
[4] = second compound 0.0316 µM, first compound 1 µM
[5] = second compound 0.0316 µM, first compound 3.16 µM
[6] = second compound 0.0316 µM, first compound 10 µM
[7] = second compound 0.1 µM, first compound 0.0316 µM
[8] = second compound 0.1 µM, first compound 0.1 µM
[9] = second compound 0.1 µM, first compound 0.316 µM
[10] = second compound 0.1 µM, first compound 1 µM
[11] = second compound 0.1 µM, first compound 3.16 µM
[12] = second compound 0.1 µM, first compound 10 µM
[13] = second compound 0.316 µM, first compound 0.0316 µM
[14] = second compound 0.316 µM, first compound 0.1 µM
[15] = second compound 0.316 µM, first compound 0.316 µM
[16] = second compound 0.316 µM, first compound 1 µM
[17] = second compound 0.316 µM, first compound 3.16 µM
[18] = second compound 0.316 µM, first compound 10 µM
[19] = second compound 1 µM, first compound 0.0316 µM
[20] = second compound 1 µM, first compound 0.1 µM
[21] = second compound 1 µM, first compound 0.316 µM
[22] = second compound 1 µM, first compound 1 µM
[23] = second compound 1 µM, first compound 3.16 µM
[24] = second compound 1 µM, first compound 10 µM
[25] = second compound 3.16 µM, first compound 0.0316 µM
[26] = second compound 3.16 µM, first compound 0.1 µM
[27] = second compound 3.16 µM, first compound 0.316 µM
[28] = second compound 3.16 µM, first compound 1 µM
[29] = second compound 3.16 µM, first compound 3.16 µM
[30] = second compound 3.16 µM, first compound 10 µM
[31] = second compound 10 µM, first compound 0.0316 µM
[32] = second compound 10 µM, first compound 0.1 µM
[33] = second compound 10 µM, first compound 0.316 µM
[34] = second compound 10 µM, first compound 1 µM
[35] = second compound 10 µM, first compound 3.16 µM
[36] = second compound 10 µM, first compound 10 µM
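Further: spheroids exposed to compounds for 7 days before readout.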

CCCS(=O)(=O)Nc1ccc(F)c(C(=O)c2c[nH]c3ncc(-c4ccc(Cl)cc4)cc23)c1F + CN1CCN(c2cc(C(=O)Nc3cc4cc(-c5cnn(C)c5)ccc4cn3)ccn2)CC1
7050 nM: IC50 (second compound 0.0316 µM)
inactive: viability, T/C [1] 79.2% | viability, T/C [2] 101% | viability, T/C [3] 95.7% | viability, T/C [4] 105% | viability, T/C [5] 107% | viability, T/C [6] 29.3% | viability, T/C [7] 73.9% | viability, T/C [8] 80.6% | viability, T/C [9] 100% | viability, T/C [10] 96.7% | viability, T/C [11] 83.7% | viability, T/C [12] 13.2%
5490 nM: IC50 (second compound 0.1 µM)
active: viability, T/C [13] 1.36% | viability, T/C [14] 1.57% | viability, T/C [15] 1.57% | viability, T/C [16] 2.69% | viability, T/C [17] 2.52% | viability, T/C [18] 0.54% | viability, T/C [19] 0.13% | viability, T/C [20] 0.17% | viability, T/C [21] 0.16% | viability, T/C [22] 0.11% | viability, T/C [23] 0.17% | viability, T/C [24] 0.07% | viability, T/C [25] 0.14% | viability, T/C [26] 0.16% | viability, T/C [27] 0.2% | viability, T/C [28] 0.19% | viability, T/C [29] 0.74% | viability, T/C [30] 0.26% | viability, T/C [31] 0.34% | viability, T/C [32] 0.17% | viability, T/C [33] 0.54% | viability, T/C [34] 0.22% | viability, T/C [35] 0.8% | viability, T/C [36] 2.02%
< 31.6 nM: IC50 (second compound 0.316 µM) | IC50 (second compound 1 µM) | IC50 (second compound 3.16 µM) | IC50 (second compound 10 µM)

COC1C=CCC(C)C(C)S(=O)(=O)NC(=O)c2ccc3c(c2)N(CC2CCC21)CC1(CCCc2cc(Cl)ccc21)CO3 (centres undefined) + CN1CCN(c2cc(C(=O)Nc3cc4cc(-c5cnn(C)c5)ccc4cn3)ccn2)CC1
active: viability, T/C [6] 8.72% | viability, T/C [12] 2.54% | viability, T/C [13] 1.25% | viability, T/C [14] 2.28% | viability, T/C [15] 2.09% | viability, T/C [16] 1.79% | viability, T/C [17] 1.28% | viability, T/C [18] 0.38% | viability, T/C [19] 0.11% | viability, T/C [20] 0.13% | viability, T/C [21] 2.8% | viability, T/C [22] 0.16% | viability, T/C [23] 0.14% | viability, T/C [24] 0.13% | viability, T/C [25] 0.17% | viability, T/C [26] 0.17% | viability, T/C [27] 0.99% | viability, T/C [28] 0.25% | viability, T/C [29] 0.33% | viability, T/C [30] 0.2% | viability, T/C [31] 0.21% | viability, T/C [32] 0.17% | viability, T/C [33] 0.9% | viability, T/C [34] 0.28% | viability, T/C [35] 0.67% | viability, T/C [36] 0.21%
621 nM: IC50 (second compound 0.1 µM)
< 31.6 nM: IC50 (second compound 0.316 µM) | IC50 (second compound 1 µM) | IC50 (second compound 3.16 µM) | IC50 (second compound 10 µM)
inactive: viability, T/C [1] 102% | viability, T/C [2] 97.9% | viability, T/C [3] 92.9% | viability, T/C [4] 92.8% | viability, T/C [5] 75.8% | viability, T/C [7] 64.4% | viability, T/C [8] 74.1% | viability, T/C [9] 52.7% | viability, T/C [10] 43.8% | viability, T/C [11] 27.5%
4900 nM: IC50 (second compound 0.0316 µM)
